In patent US20250313533A1, “QUINOLINE CARBOXYLIC ACID ESTER COMPOUND AND PREPARATION METHOD AND USE THEREOF” (priority 2019, published 2025):

How the values were obtained:
cucumber seedlings = assay: Safety for plant growth after application; format: in vivo; conditions: dosage 200 ppm
Method in brief: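 Safety to the crop is assessed on cucumber seedlings in indoor pots by tracking how treatment alters leaf area, chlorophyll level and height growth rate.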

[1] = tested on: stem rot in sweet potatoes; assay: whole plant or invertebrate; conditions: read-out: efficacy against stem rot in sweet potatoes
[2] = tested on: bacterial wilt in tobacco; assay: whole plant or invertebrate; conditions: Nicotiana tabacum, read-out: efficacy against bacterial wilt in tobacco
[3] = tested on: pathogenic bacteria causing bacterial wilt in tobacco; assay: whole plant or invertebrate; format: cell-based, ralstonia; conditions: read-out: inhibitory rate
[4] = tested on: pathogenic bacteria causing bacterial angular leaf spot in cucumbers; assay: In vitro bactericidal activity, bacterial angular leaf spot in cucumbers; format: cell-based, pseudomonas; conditions: read-out: inhibitory rate; for inhibition at 1 ppm: dosage 1 ppm; for inhibition at 5 ppm: dosage 5 ppm
[5] = tested on: pathogenic bacteria causing stem rot in sweet potatoes; assay: In vitro bactericidal activity, stem rot in sweet potatoes; format: cell-based, dikia; conditions: read-out: inhibitory rate; for inhibition at 1 ppm: dosage 1 ppm; for inhibition at 5 ppm: dosage 5 ppm
[6] = tested on: indoor potted cucumber seedlings; assay: Effect of improving growth and development of crops; format: in vivo; parameters: Rate of growth rate increase (%): concentration or dose not given beside the values; conditions: versus blank control; for Rate of chlorophyll content increase (%) / Rate of leaf area increase (%): 14 days after application; for Rate of growth rate increase (%): plant height 14 days after application; for Rate of leaf area increase (%): second leaf
Procedure: Taking indoor potted cucumber seedlings as an example, the influence of the compound disclosed herein on growth rate of plant height, chlorophyll content, leaf area, etc. of crops was mainly evaluated.
The plant heights of plants before application and 14 days after the application were measured.
The growth rates were calculated according to formula (1)
The rates of the growth rate increase (%) were calculated according to formula (2)
The longitudinal and transverse diameters (i.e., leaf length and leaf width, respectively, wherein the leaf length is the distance from the base to the tip of a leaf, and leaf width is the measured value of the upper shoulder width of the leaf) of the second leaf of plants before application and 14 days after the application were measured.
The leaf areas were calculated according to formula (3)
The leaf area increases were calculated according to formula (4)
The rates of the leaf area increases were calculated according to formula (5)
The chlorophyll contents of leaves were measured by using a chlorophyll measuring instrument (model: SPAD-520 Plus).
The chlorophyll content increases were calculated according to formula (6)
The rates of the chlorophyll content increases were calculated according to formula (7)

[7] = tested on: soft rot in Chinese cabbages; assay: whole plant or invertebrate; conditions: 48 h, read-out: efficacy against soft rot in Chinese cabbages
[8] = tested on: pathogenic bacteria causing bacterial blight in rice; assay: whole plant or invertebrate; format: cell-based, xanthomonas; conditions: read-out: inhibitory rate
[9] = tested on: pathogenic bacteria causing fire blight in pears; assay: In vitro bactericidal activity, fire blight in pears; format: cell-based, erwinia; conditions: Erwinia, read-out: inhibitory rate; for inhibition at 1 ppm: dosage 1 ppm; for inhibition at 5 ppm: dosage 5 ppm
[10] = tested on: pathogenic bacteria causing fruit blotch in watermelons; assay: In vitro bactericidal activity, fruit blotch in watermelons; format: cell-based, acidovorax; conditions: read-out: inhibitory rate; for inhibition at 1 ppm: dosage 1 ppm; for inhibition at 5 ppm: dosage 5 ppm
[11] = tested on: pathogenic bacteria causing black shank in potatoes; assay: In vitro bactericidal activity, black shank in potatoes; format: cell-based; conditions: read-out: inhibitory rate; for inhibition at 1 ppm: dosage 1 ppm; for inhibition at 5 ppm: dosage 5 ppm
[12] = tested on: pathogenic bacteria causing bacterial wilt in cassava; assay: organism not typed; format: cell-based; conditions: read-out: inhibitory rate
[13] = tested on: pathogenic bacteria causing black rot in Chinese cabbages; assay: In vitro bactericidal activity, black rot in Chinese cabbages; format: cell-based, xanthomonas; conditions: Xanthomonas, read-out: inhibitory rate; for inhibition at 1 ppm: dosage 1 ppm; for inhibition at 5 ppm: dosage 5 ppm
[14] = tested on: fruit blotch in watermelons; assay: whole plant or invertebrate; conditions: read-out: efficacy against fruit blotch in watermelons
black shank in potatoes = assay: Living crops in vivo protective activity, potatoes (root irrigation); conditions: Solanum tuberosum, read-out: efficacy against black shank in potatoes; for pest or weed control at 5 ppm: dosage 5 ppm; for pest or weed control at 10 ppm: dosage 10 ppm
Procedure: Root irrigation was carried out on the potatoes for tests according to the designed concentration of the agents. The dosage for each plant was 200 mL and was kept consistent (also for the control). The black shank bacteria were inoculated on the second day after the application. The results were investigated according to the disease condition.

bacterial blight in rice = assay: whole plant or invertebrate; conditions: Oryza sativa, read-out: efficacy against bacterial blight in rice

Structure (SMILES)	safety for plant growth (discoloration, necrosis, wilt, malformation) (cucumber seedlings)	pest or weed control at 5 ppm [1] [%]	pest or weed control at 10 ppm [1] [%]	pest or weed control at 5 ppm [2] [%]	pest or weed control at 10 ppm [2] [%]	inhibition at 1 ppm [3] [%]	inhibition at 5 ppm [3] [%]	inhibition at 1 ppm [4] [%]	inhibition at 5 ppm [4] [%]	inhibition at 1 ppm [5] [%]	inhibition at 5 ppm [5] [%]	Rate of chlorophyll content increase (%) [6] [%]	Rate of growth rate increase (%) [6] [%]	Rate of leaf area increase (%) [6] [%]	pest or weed control at 5 ppm [7] [%]	pest or weed control at 10 ppm [7] [%]	inhibition at 1 ppm [8] [%]	inhibition at 5 ppm [8] [%]	inhibition at 1 ppm [9] [%]	inhibition at 5 ppm [9] [%]	also measured
COCCOC(=O)c1cn(C2CC2)c2cc(F)ccc2c1=O [Compound 195]	safe for plant growth	≥ 90	≥ 90	≥ 90	≥ 90	≥ 90	≥ 90	≥ 90	≥ 90	≥ 90	≥ 90	12	7	9	≥ 90	≥ 90	≥ 90	≥ 90	≥ 90	≥ 90	inhibition at 1 ppm [10]: ≥ 90%; inhibition at 5 ppm [10]: ≥ 90%; inhibition at 1 ppm [11]: ≥ 90%; inhibition at 5 ppm [11]: ≥ 90%; inhibition at 1 ppm [12]: ≥ 90%; inhibition at 5 ppm [12]: ≥ 90%; inhibition at 1 ppm [13]: ≥ 90%; inhibition at 5 ppm [13]: ≥ 90%; pest or weed control at 5 ppm [14]: ≥ 90%; pest or weed control at 10 ppm [14]: ≥ 90%; pest or weed control at 5 ppm (black shank in potatoes): ≥ 90%; pest or weed control at 10 ppm (black shank in potatoes): ≥ 90%; pest or weed control at 5 ppm (bacterial blight in rice): ≥ 90%; pest or weed control at 10 ppm (bacterial blight in rice): ≥ 90%
O=C(OCCCO)c1cn(C2CC2)c2cc(F)ccc2c1=O [Compound 207]	safe for plant growth	≥ 90	≥ 90	≥ 90	≥ 90	≥ 90	≥ 90	≥ 90	≥ 90	≥ 90	≥ 90	13	6	10	≥ 90	≥ 90	≥ 90	≥ 90	≥ 90	≥ 90	inhibition at 1 ppm [10]: ≥ 90%; inhibition at 5 ppm [10]: ≥ 90%; inhibition at 1 ppm [11]: ≥ 90%; inhibition at 5 ppm [11]: ≥ 90%; inhibition at 1 ppm [12]: ≥ 90%; inhibition at 5 ppm [12]: ≥ 90%; inhibition at 1 ppm [13]: ≥ 90%; inhibition at 5 ppm [13]: ≥ 90%; pest or weed control at 5 ppm [14]: ≥ 90%; pest or weed control at 10 ppm [14]: ≥ 90%; pest or weed control at 5 ppm (black shank in potatoes): ≥ 90%; pest or weed control at 10 ppm (black shank in potatoes): ≥ 90%; pest or weed control at 5 ppm (bacterial blight in rice): ≥ 90%; pest or weed control at 10 ppm (bacterial blight in rice): ≥ 90%
COCCCOC(=O)c1cn(C2CC2)c2cc(F)ccc2c1=O [Compound 208]	safe for plant growth	≥ 90	≥ 90	≥ 90	≥ 90	≥ 90	≥ 90	≥ 90	≥ 90	≥ 90	≥ 90	12	5	11	≥ 90	≥ 90	≥ 90	≥ 90	≥ 90	≥ 90	inhibition at 1 ppm [10]: ≥ 90%; inhibition at 5 ppm [10]: ≥ 90%; inhibition at 1 ppm [11]: ≥ 90%; inhibition at 5 ppm [11]: ≥ 90%; inhibition at 1 ppm [12]: ≥ 90%; inhibition at 5 ppm [12]: ≥ 90%; inhibition at 1 ppm [13]: ≥ 90%; inhibition at 5 ppm [13]: ≥ 90%; pest or weed control at 5 ppm [14]: ≥ 90%; pest or weed control at 10 ppm [14]: ≥ 90%; pest or weed control at 5 ppm (black shank in potatoes): ≥ 90%; pest or weed control at 10 ppm (black shank in potatoes): ≥ 90%; pest or weed control at 5 ppm (bacterial blight in rice): ≥ 90%; pest or weed control at 10 ppm (bacterial blight in rice): ≥ 90%
COc1cc2c(cc1F)c(=O)c(C(=O)OCCO)cn2C1CC1 [Compound 264]	safe for plant growth	≥ 90	≥ 90	≥ 90	≥ 90	≥ 90	≥ 90	≥ 90	≥ 90	≥ 90	≥ 90	12	9	11	≥ 90	≥ 90	≥ 90	≥ 90	≥ 90	≥ 90	inhibition at 1 ppm [10]: ≥ 90%; inhibition at 5 ppm [10]: ≥ 90%; inhibition at 1 ppm [11]: ≥ 90%; inhibition at 5 ppm [11]: ≥ 90%; inhibition at 1 ppm [12]: ≥ 90%; inhibition at 5 ppm [12]: ≥ 90%; inhibition at 1 ppm [13]: ≥ 90%; inhibition at 5 ppm [13]: ≥ 90%; pest or weed control at 5 ppm [14]: ≥ 90%; pest or weed control at 10 ppm [14]: ≥ 90%; pest or weed control at 5 ppm (black shank in potatoes): ≥ 90%; pest or weed control at 10 ppm (black shank in potatoes): ≥ 90%; pest or weed control at 5 ppm (bacterial blight in rice): ≥ 90%; pest or weed control at 10 ppm (bacterial blight in rice): ≥ 90%
CCOc1cc2c(cc1F)c(=O)c(C(=O)OCCO)cn2C1CC1 [Compound 265]	safe for plant growth	≥ 90	≥ 90	≥ 90	≥ 90	≥ 90	≥ 90	≥ 90	≥ 90	≥ 90	≥ 90	13	12	15	≥ 90	≥ 90	≥ 90	≥ 90	≥ 90	≥ 90	inhibition at 1 ppm [10]: ≥ 90%; inhibition at 5 ppm [10]: ≥ 90%; inhibition at 1 ppm [11]: ≥ 90%; inhibition at 5 ppm [11]: ≥ 90%; inhibition at 1 ppm [12]: ≥ 90%; inhibition at 5 ppm [12]: ≥ 90%; inhibition at 1 ppm [13]: ≥ 90%; inhibition at 5 ppm [13]: ≥ 90%; pest or weed control at 5 ppm [14]: ≥ 90%; pest or weed control at 10 ppm [14]: ≥ 90%; pest or weed control at 5 ppm (black shank in potatoes): ≥ 90%; pest or weed control at 10 ppm (black shank in potatoes): ≥ 90%; pest or weed control at 5 ppm (bacterial blight in rice): ≥ 90%; pest or weed control at 10 ppm (bacterial blight in rice): ≥ 90%
CC(C)(C)Oc1cc2c(cc1F)c(=O)c(C(=O)OCCO)cn2C1CC1 [Compound 270]	safe for plant growth	≥ 90	≥ 90	≥ 90	≥ 90	≥ 90	≥ 90	≥ 90	≥ 90	≥ 90	≥ 90	10	9	12	≥ 90	≥ 90	≥ 90	≥ 90	≥ 90	≥ 90	inhibition at 1 ppm [10]: ≥ 90%; inhibition at 5 ppm [10]: ≥ 90%; inhibition at 1 ppm [11]: ≥ 90%; inhibition at 5 ppm [11]: ≥ 90%; inhibition at 1 ppm [12]: ≥ 90%; inhibition at 5 ppm [12]: ≥ 90%; inhibition at 1 ppm [13]: ≥ 90%; inhibition at 5 ppm [13]: ≥ 90%; pest or weed control at 5 ppm [14]: ≥ 90%; pest or weed control at 10 ppm [14]: ≥ 90%; pest or weed control at 5 ppm (black shank in potatoes): ≥ 80%; pest or weed control at 10 ppm (black shank in potatoes): ≥ 90%; pest or weed control at 5 ppm (bacterial blight in rice): ≥ 90%; pest or weed control at 10 ppm (bacterial blight in rice): ≥ 90%
